Assay [1] deals with T1, PDZ protein (GST-PDZ fusion) (Homo sapiens, UniProt O75970).
T1 construct: made in house; host or cells: E. coli (DH5alpha, BL21 or JM109)
Briefly: G' assay (10 uM PL peptide), results of TABLE 7 and TABLE 12. The assay is classed as binding. Put shortly: (§1)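 Same steps as the G-zero format, apart from a peptide concentration of 10 uM in place of 20 uM in step 2. Amino-terminally biotinylated PL peptides bind GST-PDZ fusions, and retained peptide is quantified by 450 nm absorbance.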

For assay [2], the target named is T2, PDZ protein (GST-PDZ fusion) (Homo sapiens, UniProt Q5TCQ9).
T2 construct: made in house; host or cells: E. coli (DH5alpha, BL21 or JM109)
T2 sequence (Q5TCQ9 1-1481): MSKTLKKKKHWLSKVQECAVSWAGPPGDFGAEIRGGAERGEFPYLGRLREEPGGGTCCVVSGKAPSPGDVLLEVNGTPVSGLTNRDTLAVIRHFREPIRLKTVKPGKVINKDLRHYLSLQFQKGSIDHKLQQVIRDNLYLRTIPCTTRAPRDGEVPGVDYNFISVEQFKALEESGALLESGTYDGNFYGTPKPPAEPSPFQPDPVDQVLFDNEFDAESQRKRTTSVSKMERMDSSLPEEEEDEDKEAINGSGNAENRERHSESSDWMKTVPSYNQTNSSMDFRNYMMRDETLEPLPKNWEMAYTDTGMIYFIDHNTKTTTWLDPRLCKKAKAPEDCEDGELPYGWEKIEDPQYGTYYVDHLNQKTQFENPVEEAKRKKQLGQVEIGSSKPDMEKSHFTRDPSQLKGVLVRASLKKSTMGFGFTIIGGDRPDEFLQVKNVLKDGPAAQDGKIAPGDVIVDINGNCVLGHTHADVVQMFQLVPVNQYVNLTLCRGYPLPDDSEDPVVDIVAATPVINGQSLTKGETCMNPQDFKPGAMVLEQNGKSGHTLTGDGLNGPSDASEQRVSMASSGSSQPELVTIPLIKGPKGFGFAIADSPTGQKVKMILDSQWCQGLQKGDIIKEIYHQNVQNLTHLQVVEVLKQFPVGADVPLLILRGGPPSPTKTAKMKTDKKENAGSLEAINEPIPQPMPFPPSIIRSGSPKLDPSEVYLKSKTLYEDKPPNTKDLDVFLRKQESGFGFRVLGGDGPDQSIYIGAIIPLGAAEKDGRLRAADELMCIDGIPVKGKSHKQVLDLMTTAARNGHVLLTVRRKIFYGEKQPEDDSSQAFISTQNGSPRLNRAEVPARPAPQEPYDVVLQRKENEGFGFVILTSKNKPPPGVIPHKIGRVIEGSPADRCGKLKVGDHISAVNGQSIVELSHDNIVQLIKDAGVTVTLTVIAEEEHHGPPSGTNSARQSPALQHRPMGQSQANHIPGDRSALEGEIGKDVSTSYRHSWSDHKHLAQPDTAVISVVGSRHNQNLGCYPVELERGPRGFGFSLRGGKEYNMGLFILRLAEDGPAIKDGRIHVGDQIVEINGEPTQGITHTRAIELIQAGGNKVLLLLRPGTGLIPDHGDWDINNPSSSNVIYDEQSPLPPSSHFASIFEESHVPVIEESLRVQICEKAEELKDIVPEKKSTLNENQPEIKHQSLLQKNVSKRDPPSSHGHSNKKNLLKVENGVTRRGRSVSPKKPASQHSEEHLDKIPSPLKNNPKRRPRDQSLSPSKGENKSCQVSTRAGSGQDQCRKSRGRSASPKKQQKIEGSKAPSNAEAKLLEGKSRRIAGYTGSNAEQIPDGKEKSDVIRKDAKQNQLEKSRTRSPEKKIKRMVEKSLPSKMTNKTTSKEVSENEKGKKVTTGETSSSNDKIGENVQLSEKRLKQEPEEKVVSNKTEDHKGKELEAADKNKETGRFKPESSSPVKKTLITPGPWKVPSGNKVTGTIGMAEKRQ
The description is as above. The assay is classed as binding. In short, it runs like this:
as §1

Ends that are not written are not given here. Peptide text beside a SMILES is read from it. * marks the point of attachment. Biotin = O=C1N[C@H]2[C@H](CS[C@H]2CCCCC(=O)*)N1

T1 sequence (O75970 whole entry, the tested form may be a part): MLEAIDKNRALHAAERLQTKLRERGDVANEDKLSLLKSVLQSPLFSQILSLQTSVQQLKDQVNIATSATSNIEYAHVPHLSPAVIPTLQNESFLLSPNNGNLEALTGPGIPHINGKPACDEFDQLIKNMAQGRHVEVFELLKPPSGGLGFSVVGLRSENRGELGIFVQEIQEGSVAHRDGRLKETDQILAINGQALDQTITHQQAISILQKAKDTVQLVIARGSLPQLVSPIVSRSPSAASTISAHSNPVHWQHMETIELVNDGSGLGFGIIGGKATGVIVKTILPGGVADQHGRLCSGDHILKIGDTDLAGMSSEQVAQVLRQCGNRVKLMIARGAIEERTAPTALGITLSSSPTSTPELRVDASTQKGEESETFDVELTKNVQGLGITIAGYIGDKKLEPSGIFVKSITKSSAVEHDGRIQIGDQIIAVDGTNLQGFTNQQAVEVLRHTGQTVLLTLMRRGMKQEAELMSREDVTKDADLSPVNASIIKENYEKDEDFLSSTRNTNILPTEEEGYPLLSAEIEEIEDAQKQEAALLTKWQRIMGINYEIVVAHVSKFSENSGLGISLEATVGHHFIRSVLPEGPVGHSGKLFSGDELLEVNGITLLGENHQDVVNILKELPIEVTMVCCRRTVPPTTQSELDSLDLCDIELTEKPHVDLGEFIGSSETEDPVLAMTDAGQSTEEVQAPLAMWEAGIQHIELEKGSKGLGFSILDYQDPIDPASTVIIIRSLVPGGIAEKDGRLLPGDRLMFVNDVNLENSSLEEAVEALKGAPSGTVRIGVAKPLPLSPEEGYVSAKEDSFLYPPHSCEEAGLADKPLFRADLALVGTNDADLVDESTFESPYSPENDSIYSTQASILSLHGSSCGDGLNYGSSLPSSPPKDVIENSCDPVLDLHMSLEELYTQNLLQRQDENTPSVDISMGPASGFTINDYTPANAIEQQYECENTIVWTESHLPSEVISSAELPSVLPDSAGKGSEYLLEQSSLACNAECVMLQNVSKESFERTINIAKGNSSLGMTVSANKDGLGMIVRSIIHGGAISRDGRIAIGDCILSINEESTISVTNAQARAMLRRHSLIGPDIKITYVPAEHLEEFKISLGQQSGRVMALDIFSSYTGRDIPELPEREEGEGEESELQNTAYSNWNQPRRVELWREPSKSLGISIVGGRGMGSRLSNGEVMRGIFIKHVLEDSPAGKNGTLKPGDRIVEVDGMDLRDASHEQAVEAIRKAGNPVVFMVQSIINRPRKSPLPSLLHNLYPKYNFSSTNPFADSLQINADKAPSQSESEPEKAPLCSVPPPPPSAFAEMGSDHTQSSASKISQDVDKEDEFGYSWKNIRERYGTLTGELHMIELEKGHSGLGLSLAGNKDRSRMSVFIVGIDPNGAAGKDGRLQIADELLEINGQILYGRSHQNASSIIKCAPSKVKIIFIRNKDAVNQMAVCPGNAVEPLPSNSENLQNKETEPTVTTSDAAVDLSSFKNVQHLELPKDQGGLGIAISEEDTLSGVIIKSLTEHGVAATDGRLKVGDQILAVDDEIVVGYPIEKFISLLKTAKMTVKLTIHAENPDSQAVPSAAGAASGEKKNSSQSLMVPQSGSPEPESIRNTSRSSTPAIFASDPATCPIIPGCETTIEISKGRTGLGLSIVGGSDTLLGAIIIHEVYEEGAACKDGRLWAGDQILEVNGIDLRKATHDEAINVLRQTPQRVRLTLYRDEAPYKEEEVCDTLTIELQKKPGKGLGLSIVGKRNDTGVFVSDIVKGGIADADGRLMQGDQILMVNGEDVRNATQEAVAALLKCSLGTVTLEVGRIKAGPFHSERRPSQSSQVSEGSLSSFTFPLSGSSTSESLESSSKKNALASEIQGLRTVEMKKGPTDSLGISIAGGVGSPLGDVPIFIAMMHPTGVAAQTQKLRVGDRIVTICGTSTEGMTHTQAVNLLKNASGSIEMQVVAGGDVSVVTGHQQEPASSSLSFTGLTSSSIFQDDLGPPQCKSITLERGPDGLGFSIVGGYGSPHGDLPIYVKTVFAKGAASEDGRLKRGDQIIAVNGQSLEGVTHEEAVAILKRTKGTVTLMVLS

Turning to `CC(C)C[C@H](NC(=O)[C@H](C)NC(=O)[C@H](CO)NC(=O)CNC(=O)[C@@H](NC(=O)CCCC[C@@H]1SC[C@@H]2NC(=O)N[C@@H]21)[C@@H](C)O)C(=O)N[C@@H](CCC(N)=O)C(=O)N[C@@H](C)C(=O)N[C@@H](Cc1c[nH]c2ccccc12)C(=O)N[C@@H](CCCNC(=N)N)C(=O)N[C@@H](Cc1c[nH]cn1)C(=O)N[C@H](C(=O)N[C@@H](CO)C(=O)N[C@@H](CCCNC(=N)N)C(=O)N[C@@H](CCC(N)=O)C(=O)N[C@@H](C)C(=O)N[C@H](C(=O)N[C@@H](CCC(=O)O)C(=O)N[C@@H](CO)C(=O)N[C@H](C(=O)N[C@H](C(=O)O)C(C)C)[C@@H](C)O)[C@@H](C)O)[C@@H](C)O` [HPV E6 #66 (modified)] (Biotin-TGSALQAWRHTSRQATESTV-OH; C-terminus assumed), the Classification is 1 (A450 nm 0-1) in assay [1] (PDZ MUPP-1, PDZ Domain 10); 3 (A450 nm 2-3) in assay [1] (PDZ MUPP-1, PDZ Domain 13); 5 (A450 nm of 4 more than 2× repeated) in assay [2] (PDZ KIAA1634, PDZ Domain 1); 1 (A450 nm 0-1) in assay [2] (PDZ KIAA1634, PDZ Domain 2).

Turning to `CC[C@H](C)[C@H](NC(=O)[C@H](CCC(N)=O)NC(=O)CCCC[C@@H]1SC[C@@H]2NC(=O)N[C@@H]21)C(=O)N[C@@H](CO)C(=O)N1CCC[C@H]1C(=O)NCC(=O)NCC(=O)N[C@@H](CC(C)C)C(=O)N[C@@H](CCC(=O)O)C(=O)N1CCC[C@H]1C(=O)N1CCC[C@H]1C(=O)N[C@@H](CO)C(=O)N[C@@H](CCC(=O)O)C(=O)N[C@@H](CCCCN)C(=O)N[C@@H](Cc1c[nH]cn1)C(=O)N[C@@H](Cc1ccccc1)C(=O)N[C@@H](CCCNC(=N)N)C(=O)N[C@@H](CCC(=O)O)C(=O)N[C@H](C(=O)N[C@@H](CCC(=O)O)C(=O)N[C@H](C(=O)O)C(C)C)[C@@H](C)O` [Tax], the Classification in assay [1] (PDZ MUPP-1, PDZ Domain 13) was 5 (A450 nm of 4 more than 2× repeated); in assay [2] (PDZ KIAA1634, PDZ Domain 1), 5 (A450 nm of 4 more than 2× repeated); in assay [2] (PDZ KIAA1634, PDZ Domain 2) it was 2 (A450 nm 1-2); in assay [2] (PDZ KIAA1634, PDZ Domain 4), 2 (A450 nm 1-2); in assay [2] (PDZ KIAA1634, PDZ Domain 5) it was 1 (A450 nm 0-1).

Turning to `CC[C@H](C)[C@H](NC(=O)[C@H](CCC(N)=O)NC(=O)[C@@H](NC(=O)[C@H](Cc1c[nH]cn1)NC(=O)[C@H](CCC(N)=O)NC(=O)[C@H](CC(=O)O)NC(=O)[C@H](CCC(=O)O)NC(=O)[C@H](CC(=O)O)NC(=O)[C@H](Cc1ccccc1)NC(=O)[C@@H]1CCCN1C(=O)[C@H](CCC(=O)O)NC(=O)[C@H](CC(N)=O)NC(=O)[C@H](CCC(=O)O)NC(=O)[C@@H]1CCCN1C(=O)[C@H](CC(=O)O)NC(=O)[C@H](CO)NC(=O)[C@H](CC(=O)O)NC(=O)CCCC[C@@H]1SC[C@@H]2NC(=O)N[C@@H]21)[C@@H](C)O)C(=O)N[C@H](C(=O)N[C@@H](CCCCN)C(=O)N[C@H](C(=O)O)C(C)C)[C@@H](C)O` [PTEN], the Classification in assay [1] (PDZ MUPP-1, PDZ Domain 13) is reported as 5 (A450 nm of 4 more than 2× repeated); in assay [2] (PDZ KIAA1634, PDZ Domain 2), 5 (A450 nm of 4 more than 2× repeated).

As for `CC[C@H](C)[C@H](NC(=O)[C@H](CCCCN)NC(=O)[C@@H](NC(=O)[C@H](CO)NC(=O)[C@@H]1CCCN1C(=O)[C@H](Cc1ccccc1)NC(=O)[C@@H](NC(=O)[C@@H](NC(=O)[C@H](CCCNC(=N)N)NC(=O)[C@H](CCC(=O)O)NC(=O)[C@H](CC(C)C)NC(=O)[C@H](CC(C)C)NC(=O)[C@H](CC(C)C)NC(=O)[C@@H](NC(=O)CNC(=O)[C@@H](NC(=O)CCCC[C@@H]1SC[C@@H]2NC(=O)N[C@@H]21)C(C)C)[C@@H](C)O)C(C)C)[C@@H](C)CC)C(C)C)C(=O)N[C@@H](C)C(=O)N[C@H](C(=O)N[C@@H](CC(C)C)C(=O)N[C@H](C(=O)O)C(C)C)[C@@H](C)O` [Adenovirus E4 Type9], the Classification in assay [1] (PDZ MUPP-1, PDZ Domain 10, PL peptide 10 uM) is 1 (A450 nm 0-1); in assay [1] (PDZ MUPP-1, PDZ Domain 11, Protein Optimal Conc 5), 5 (A450 nm of 4 more than 2× repeated); in assay [2] (PDZ KIAA1634, PDZ Domain 1, PL peptide 10 uM) it was 5 (A450 nm of 4 more than 2× repeated); in assay [2] (PDZ KIAA1634, PDZ Domain 2, Protein Optimal Conc 5), 5 (A450 nm of 4 more than 2× repeated); in assay [2] (PDZ KIAA1634, PDZ Domain 4, Protein Optimal Conc 5), 4 (A450 nm 3-4).

Turning to `CC[C@H](C)[C@H](NC(=O)[C@H](CC(=O)O)NC(=O)[C@H](CCC(=O)O)NC(=O)[C@H](CCCNC(=N)N)NC(=O)[C@@H](NC(=O)CCCC[C@@H]1SC[C@@H]2NC(=O)N[C@@H]21)[C@@H](C)O)C(=O)N[C@@H](Cc1ccc(O)cc1)C(=O)N[C@H](C(=O)N[C@@H](CC(N)=O)C(=O)N[C@@H](Cc1ccc(O)cc1)C(=O)N1CCC[C@H]1C(=O)N[C@H](C(=O)N[C@@H](Cc1ccccc1)C(=O)N[C@@H](CO)C(=O)N[C@@H](CCCNC(=N)N)C(=O)N[C@@H](CCCNC(=N)N)C(=O)N1CCC[C@H]1C(=O)N[C@@H](CCCCN)C(=O)N[C@H](C(=O)N[C@@H](CCCNC(=N)N)C(=O)N[C@H](C(=O)O)C(C)C)[C@@H](C)O)[C@@H](C)O)C(C)C` [DNAM-1] (Biotin-TREDIYVNYPTFSRRPKTRV-OH; C-terminus assumed), the Classification is on record as 4 (A450 nm 3-4) in assay [1] (PDZ MUPP-1, PDZ Domain 10) and 5 (A450 nm of 4 more than 2× repeated) in assay [2] (PDZ KIAA1634, PDZ Domain 1).

As for “ARHRVTSYTSSSVNVSSNL (Biotin-ARHRVTSYTSSSVNVSSNL) [IL-8RB]”, the Classification in assay [1] (PDZ MUPP-1, PDZ Domain 13) is listed as 1 (A450 nm 0-1); in assay [2] (PDZ KIAA1634, PDZ Domain 1) it was 1 (A450 nm 0-1); in assay [2] (PDZ KIAA1634, PDZ Domain 5), 1 (A450 nm 0-1).

Regarding “ELLQFCRTPNPALKNGQYWV (Biotin-ELLQFCRTPNPALKNGQYWV)”, the Classification in assay [1] (PDZ MUPP-1, PDZ Domain 1) was 2 (A450 nm 1-2); in assay [1] (PDZ MUPP-1, PDZ Domain 2) it was 5 (A450 nm of 4 more than 2× repeated); in assay [1] (PDZ MUPP-1, PDZ Domain 5), 5 (A450 nm of 4 more than 2× repeated); in assay [1] (PDZ MUPP-1, PDZ Domain 8) it was 2 (A450 nm 1-2); in assay [1] (PDZ MUPP-1, PDZ Domain 10), 4 (A450 nm 3-4); in assay [1] (PDZ MUPP-1, PDZ Domain 11), 5 (A450 nm of 4 more than 2× repeated). The Classification in assay [1] (PDZ MUPP-1, PDZ Domain 12) is given as 1 (A450 nm 0-1); in assay [2] (PDZ KIAA1634, PDZ Domain 1), 5 (A450 nm of 4 more than 2× repeated); in assay [2] (PDZ KIAA1634, PDZ Domain 5), 2 (A450 nm 1-2).

Take `CSCC[C@H](NC(=O)[C@H](C)NC(=O)[C@H](CCCNC(=N)N)NC(=O)CNC(=O)[C@@H](NC(=O)[C@H](Cc1c[nH]c2ccccc12)NC(=O)[C@H](CCCNC(=N)N)NC(=O)CNC(=O)CCCC[C@@H]1SC[C@@H]2NC(=O)N[C@@H]21)[C@@H](C)O)C(=O)N[C@@H](CO)C(=O)N[C@@H](C)C(=O)N[C@@H](Cc1c[nH]c2ccccc12)C(=O)N[C@@H](CCCCN)C(=O)N1CCC[C@H]1C(=O)N[C@H](C(=O)N[C@@H](CCCNC(=N)N)C(=O)N[C@@H](CCCNC(=N)N)C(=O)N[C@@H](CCC(=O)O)C(=O)N[C@H](C(=O)N[C@@H](CCC(=O)O)C(=O)N[C@H](C(=O)O)C(C)C)[C@@H](C)O)[C@@H](C)O` [HPV E6 #35 (modified)] (Biotin-GRWTGRAMSAWKPTRRETEV-OH; C-terminus assumed): the Classification in assay [1] (PDZ MUPP-1, PDZ Domain 5) is recorded as 2 (A450 nm 1-2); in assay [1] (PDZ MUPP-1, PDZ Domain 10), 4 (A450 nm 3-4); in assay [1] (PDZ MUPP-1, PDZ Domain 13) it was 5 (A450 nm of 4 more than 2× repeated); in assay [2] (PDZ KIAA1634, PDZ Domain 1), 5 (A450 nm of 4 more than 2× repeated); in assay [2] (PDZ KIAA1634, PDZ Domain 2), 3 (A450 nm 2-3); in assay [2] (PDZ KIAA1634, PDZ Domain 4), 2 (A450 nm 1-2). The Classification in assay [2] (PDZ KIAA1634, PDZ Domain 5) is reported as 3 (A450 nm 2-3).

(Values after patent US20050282743A1, “Molecular interactions in cells” (Arbor Vita Corporation, priority 2001, published 2005).)
